# Source: patent publication US11866414B2, “Substituted heterocyclic compounds” (BRISTOL-MYERS SQUIBB COMPANY, priority 2021, dated 2024)
# Key:
# [1] = test system: IFNα-induced STAT phosphorylation (pSTAT5); test: IFNα-induced STAT phosphorylation in human whole blood; type: cell-based; settings: 1 h compound, 1000 U/mL IFNα A/D 15 min, CD3 positive population, read-out: Human Whole blood IFNa pSTAT5 IC50
# Description: IFNα-Induced STAT Phosphorylation in Human Whole Blood
# After an hour long incubation with compound, human whole blood (drawn with ACD-A as anticoagulant) was stimulated with 1000 U/mL recombinant human IFNα A/D (R&D Systems 11200-2) for 15 min. The stimulation was stopped by adding Fix/Lyse buffer (BD 558049). Cells were stained with a CD3 FITC antibody (BD 555916), washed, and permeabilized on ice using Perm III buffer (BD 558050). Cells were then stained with an Alexa-Fluor 647 pSTAT5 (pY694) antibody (BD 612599) for 60 min prior to analysis on the iQue Plus. The amount of pSTAT5 expression was quantitated by median fluorescence intensity after gating on the CD3 positive population.
# in vitro = settings: human, Caco-2, pH 7.4
Compound,IC50 [1] [nM],"Papp A→B at 2 h, 3 μM (in vitro) [×10⁻⁶ cm/s]","efflux ratio at 2 h, 3 μM (in vitro)"
"[2H]C([2H])([2H])NC(=O)c1nnc(N2CCN(C(C)C)C2=O)cc1Nc1cccc(-c2cnn(C)n2)c1OC [Example 50, 6-(3-isopropyl-2-oxoimidazolidin-1-yl)-4-((2-methoxy-3-(2-methyl-2H-1,2,3-triazol-4-yl)phenyl)amino)-N-(methyl-d3)pyridazine-3-carboxamide]",170,26.5,0.4
"[2H]C([2H])([2H])NC(=O)c1nnc(NC(=O)N(C)C)cc1Nc1nccc(-c2cnn(C3CC3)n2)c1OC [Example 61, 4-((4-(2-cyclopropyl-2H-1,2,3-triazol-4-yl)-3-methoxypyridin-2-yl)amino)-6-(3,3-dimethylureido)-N-(methyl-d3)pyridazine-3-carboxamide]",480,38.3,0.4
"[2H]C([2H])([2H])NC(=O)c1nnc(Nc2cc(C)nc(C)n2)cc1Nc1nccc(-c2cnn(C)n2)c1OC [Example 64, 6-[(2,6-dimethylpyrimidin-4-yl)amino]-4-{[3-methoxy-4-(2-methyl-2H-1,2,3-triazol-4-yl)pyridin-2-yl]amino}-N—(^2H3)methylpyridazine-3-carboxamide]",250,1.7,< 0.9
"[2H]C([2H])([2H])NC(=O)c1nnc(Nc2cc(C)n(C)n2)cc1Nc1nccc(-c2cnn(C)n2)c1OC [Example 68, 6-[(1,5-dimethyl-1H-pyrazol-3-yl)amino]-4-{[3-methoxy-4-(2-methyl-2H-1,2,3-triazol-4-yl)pyridin-2-yl]amino}-N—(^2H3)methylpyridazine-3-carboxamide]",290,59.4,0.4

# The next compounds have a lower IC50 [1] than those just listed; values first:
IC50 [1] [nM],"Papp A→B at 2 h, 3 μM (in vitro) [×10⁻⁶ cm/s]","efflux ratio at 2 h, 3 μM (in vitro)",Compound
10,81.6,0.4,"[2H]C([2H])([2H])NC(=O)c1nnc(NC(=O)C2CC2)cc1Nc1nccc(-c2cnn(C([2H])([2H])[2H])n2)c1OC [Example 57, 6-(cyclopropane-carboxamido)-4-((3-methoxy-4-(2-(methyl-d3)-2H-1,2,3-triazol-4-yl)pyridin-2-yl)amino)-N-(methyl-d3)pyridazine-3-carboxamide]"
20,3.9,< 0.4,"[2H]C([2H])([2H])NC(=O)c1nnc(Nc2ccccn2)cc1Nc1nccc(-c2cnn(C)n2)c1OC [Example 63, 4-((3-methoxy-4-(2-methyl-2H-1,2,3-triazol-4-yl)pyridin-2-yl)amino)-N-(methyl-d3)-6-(pyridin-2-ylamino)pyridazine-3-carboxamide]"
4,11.7,1.6,"[2H]C([2H])([2H])NC(=O)c1nnc(Nc2ccc(C(C)(C)O)cn2)cc1Nc1nccc(-c2cnn(C)n2)c1OC [Example 65, 6-{[5-(2-hydroxypropan-2-yl)pyridin-2-yl]amino}-4-{[3-methoxy-4-(2-methyl-2H-1,2,3-triazol-4-yl)pyridin-2-yl]amino}-N—(^2H3)methylpyridazine-3-carboxamide]"
0.2,22.2,0.3,"[2H]C([2H])([2H])NC(=O)c1nnc(Nc2ccc(N3CCOCC3)cn2)cc1Nc1nccc(-c2cnn(C)n2)c1OC [Example 66, 4-{[3-methoxy-4-(2-methyl-2H-1,2,3-triazol-4-yl)pyridin-2-yl]amino}-N—(^2H3)methyl-6-{[5-(morpholin-4-yl)pyridin-2-yl]amino}pyridazine-3-carboxamide]"
86,28.6,0.9,"[2H]C([2H])([2H])NC(=O)c1nnc(Nc2cc(C(C)(C)O)ccn2)cc1Nc1nccc(-c2cnn(C)n2)c1OC [Example 67, 6-{[4-(2-hydroxypropan-2-yl)pyridin-2-yl]amino}-4-{[3-methoxy-4-(2-methyl-2H-1,2,3-triazol-4-yl)pyridin-2-yl]amino}-N—(^2H3)methylpyridazine-3-carboxamide]"
